Measurements: PubChem BioAssay (NCI)
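Grown in 96-well plates, cells were treated for 48 hours with each compound at five concentrations. Insufficient inhibition: endpoint recorded as highest concentration tested. GI50 is the concentration that inhibits growth by half. TGI marks complete inhibition of growth.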

What was measured:
Assay in all cases: DTP human tumour cell line panel, 48 h
SK-MEL-28 melanoma = system: SK-MEL-28 melanoma
HL-60(TB) leukemia = system: HL-60(TB) leukemia
HCC-2998 colon = system: HCC-2998 colon
NCI-H460 lung = system: NCI-H460 lung
EKVX NSCLC = system: EKVX NSCLC
SF-539 CNS = system: SF-539 CNS
SR leukemia = system: SR leukemia
SNB-19 CNS = system: SNB-19 CNS
786-0 renal = system: 786-0 renal
SNB-75 CNS = system: SNB-75 CNS
CAKI-1 renal = system: CAKI-1 renal
HOP-92 NSCLC = system: HOP-92 NSCLC
NCI/ADR-RES ovarian = system: NCI/ADR-RES ovarian
U251 CNS = system: U251 CNS
HCT-116 colon = system: HCT-116 colon
A549 NSCLC = system: A549 NSCLC
MDA-MB-231 breast = system: MDA-MB-231 breast
SW-620 colon = system: SW-620 colon
SF-268 CNS = system: SF-268 CNS
SN12C renal = system: SN12C renal
LOX IMVI melanoma = system: LOX IMVI melanoma
TK-10 renal = system: TK-10 renal
CCRF-CEM leukemia = system: CCRF-CEM leukemia
NCI-H226 lung = system: NCI-H226 lung
K-562 leukemia = system: K-562 leukemia
T-47D breast = system: T-47D breast
SF-295 CNS = system: SF-295 CNS
M14 melanoma = system: M14 melanoma
HS 578T breast = system: HS 578T breast
MALME-3M melanoma = system: MALME-3M melanoma
UACC-257 melanoma = system: UACC-257 melanoma
OVCAR-5 ovarian = system: OVCAR-5 ovarian
UACC-62 melanoma = system: UACC-62 melanoma
OVCAR-3 ovarian = system: OVCAR-3 ovarian
NCI-H522 lung = system: NCI-H522 lung
OVCAR-8 ovarian = system: OVCAR-8 ovarian
ACHN renal = system: ACHN renal
HOP-62 NSCLC = system: HOP-62 NSCLC
A498 renal = system: A498 renal
MDA-MB-435 = system: MDA-MB-435
SK-OV-3 ovarian = system: SK-OV-3 ovarian
MOLT-4 leukemia = system: MOLT-4 leukemia
SK-MEL-2 melanoma = system: SK-MEL-2 melanoma
HT29 colon = system: HT29 colon
BT-549 breast = system: BT-549 breast
HCT-15 colon = system: HCT-15 colon
KM12 colon = system: KM12 colon
DU-145 prostate = system: DU-145 prostate
SK-MEL-5 melanoma = system: SK-MEL-5 melanoma
NCI-H23 lung = system: NCI-H23 lung
IGROV1 ovarian = system: IGROV1 ovarian
MCF7 breast = system: MCF7 breast
OVCAR-4 ovarian = system: OVCAR-4 ovarian
COLO 205 colon = system: COLO 205 colon
PC-3 prostate = system: PC-3 prostate
RPMI-8226 leukemia = system: RPMI-8226 leukemia
UO-31 renal = system: UO-31 renal

`COc1ccc2sc(NC(=O)CCCCCCNC(=O)C(O)(O)C(F)(F)F)nc2c1` gave a GI50 (SK-MEL-28 melanoma) of 1160 nM, a TGI (SK-MEL-28 melanoma) of 7.95 µM and a GI50 (HL-60(TB) leukemia) of 1060 nM. For the same compound, the TGI (HL-60(TB) leukemia) was greater than 30.3 µM, the GI50 (HCC-2998 colon) was 2150 nM and the TGI (HCC-2998 colon) was 7.56 µM. It also gave a GI50 (NCI-H460 lung) of 877 nM, a TGI (NCI-H460 lung) of 13.5 µM and a GI50 (EKVX NSCLC) of 2330 nM. It also gave a TGI (EKVX NSCLC) greater than 30.3 µM, a GI50 (SF-539 CNS) of 2050 nM and a TGI (SF-539 CNS) greater than 30.3 µM. It also gave a GI50 (SR leukemia) of 738 nM, a TGI (SR leukemia) greater than 30.3 µM and a GI50 (SNB-19 CNS) of 2470 nM. It also gave a TGI (SNB-19 CNS) of 14.7 µM, a GI50 (786-0 renal) of 1080 nM and a TGI (786-0 renal) greater than 30.3 µM. It also gave a GI50 (SNB-75 CNS) of 912 nM, a TGI (SNB-75 CNS) greater than 30.3 µM and a GI50 (CAKI-1 renal) of 1830 nM. For the same compound, the TGI (CAKI-1 renal) was 14.7 µM, the GI50 (HOP-92 NSCLC) was 649 nM and the TGI (HOP-92 NSCLC) was 2470 nM. It also gave a GI50 (NCI/ADR-RES ovarian) of 2070 nM, a TGI (NCI/ADR-RES ovarian) of 18.5 µM and a GI50 (U251 CNS) of 1040 nM. It also gave a TGI (U251 CNS) of 5.27 µM, a GI50 (HCT-116 colon) of 754 nM and a TGI (HCT-116 colon) greater than 30.3 µM. For the same compound, the GI50 (A549 NSCLC) was 1860 nM, the TGI (A549 NSCLC) was 18.4 µM and the GI50 (MDA-MB-231 breast) was 680 nM. It also gave a TGI (MDA-MB-231 breast) of 2240 nM, a GI50 (SW-620 colon) of 531 nM and a TGI (SW-620 colon) of 1850 nM. For the same compound, the GI50 (SF-268 CNS) was 1480 nM, the TGI (SF-268 CNS) was 8.21 µM and the GI50 (SN12C renal) was 2310 nM. The TGI (SN12C renal) was 19 µM, the GI50 (LOX IMVI melanoma) was 1380 nM and the TGI (LOX IMVI melanoma) was 5.42 µM. The GI50 (TK-10 renal) was 736 nM, the TGI (TK-10 renal) was greater than 30.3 µM and the GI50 (CCRF-CEM leukemia) was 1340 nM. The TGI (CCRF-CEM leukemia) was greater than 30.3 µM, the GI50 (NCI-H226 lung) was 4.94 µM and the TGI (NCI-H226 lung) was 22.6 µM. The GI50 (K-562 leukemia) was 882 nM, the TGI (K-562 leukemia) was greater than 30.3 µM and the GI50 (T-47D breast) was 879 nM. The TGI (T-47D breast) was 3.02 µM, the GI50 (SF-295 CNS) was 1070 nM and the TGI (SF-295 CNS) was 3.41 µM. The GI50 (M14 melanoma) was 2070 nM, the TGI (M14 melanoma) was greater than 30.3 µM and the GI50 (HS 578T breast) was 969 nM. For the same compound, the TGI (HS 578T breast) was 9.91 µM, the GI50 (MALME-3M melanoma) was 1040 nM and the TGI (MALME-3M melanoma) was 12 µM. It also gave a GI50 (UACC-257 melanoma) of 1490 nM, a TGI (UACC-257 melanoma) of 26.8 µM and a GI50 (OVCAR-5 ovarian) of 912 nM. For the same compound, the TGI (OVCAR-5 ovarian) was 6.26 µM, the GI50 (UACC-62 melanoma) was 828 nM and the TGI (UACC-62 melanoma) was 3.41 µM. For the same compound, the GI50 (OVCAR-3 ovarian) was 696 nM, the TGI (OVCAR-3 ovarian) was 2840 nM and the GI50 (NCI-H522 lung) was 919 nM. The TGI (NCI-H522 lung) was 4.61 µM, the GI50 (OVCAR-8 ovarian) was 989 nM and the TGI (OVCAR-8 ovarian) was 6.58 µM. It also gave a GI50 (ACHN renal) of 1180 nM, a TGI (ACHN renal) of 6.58 µM and a GI50 (HOP-62 NSCLC) of 1330 nM. For the same compound, the TGI (HOP-62 NSCLC) was greater than 30.3 µM, the GI50 (A498 renal) was 901 nM and the TGI (A498 renal) was 6.47 µM. It also gave a GI50 (MDA-MB-435) of 1030 nM, a TGI (MDA-MB-435) of 6 µM and a GI50 (SK-OV-3 ovarian) of 860 nM. It also gave a TGI (SK-OV-3 ovarian) of 2310 nM, a GI50 (MOLT-4 leukemia) of 1070 nM and a TGI (MOLT-4 leukemia) greater than 30.3 µM. For the same compound, the GI50 (SK-MEL-2 melanoma) was 1060 nM, the TGI (SK-MEL-2 melanoma) was 5.2 µM and the GI50 (HT29 colon) was 912 nM. For the same compound, the TGI (HT29 colon) was greater than 30.3 µM, the GI50 (BT-549 breast) was 1500 nM and the TGI (BT-549 breast) was 18.9 µM. For the same compound, the GI50 (HCT-15 colon) was 3.57 µM, the TGI (HCT-15 colon) was 10.1 µM and the GI50 (KM12 colon) was 1290 nM. For the same compound, the TGI (KM12 colon) was 7.4 µM, the GI50 (DU-145 prostate) was 1010 nM and the TGI (DU-145 prostate) was 14 µM. The GI50 (SK-MEL-5 melanoma) was 1420 nM, the TGI (SK-MEL-5 melanoma) was 4.87 µM and the GI50 (NCI-H23 lung) was 2830 nM. It also gave a TGI (NCI-H23 lung) of 21.7 µM, a GI50 (IGROV1 ovarian) of 1830 nM and a TGI (IGROV1 ovarian) of 7.73 µM. It also gave a GI50 (MCF7 breast) of 1750 nM, a TGI (MCF7 breast) greater than 30.3 µM and a GI50 (OVCAR-4 ovarian) of 2800 nM. The TGI (OVCAR-4 ovarian) was greater than 30.3 µM, the GI50 (COLO 205 colon) was 920 nM and the TGI (COLO 205 colon) was 3.65 µM. For the same compound, the GI50 (PC-3 prostate) was 1720 nM, the TGI (PC-3 prostate) was greater than 30.3 µM and the GI50 (RPMI-8226 leukemia) was 988 nM. It also gave a TGI (RPMI-8226 leukemia) greater than 30.3 µM, a GI50 (UO-31 renal) of 1120 nM and a TGI (UO-31 renal) of 5.7 µM.
